Target: T1, C202S (C218S) mutant MKK7 kinase domain (Homo sapiens, UniProt O14733, C202S)
T1 sequence (O14733 1-419 C202S): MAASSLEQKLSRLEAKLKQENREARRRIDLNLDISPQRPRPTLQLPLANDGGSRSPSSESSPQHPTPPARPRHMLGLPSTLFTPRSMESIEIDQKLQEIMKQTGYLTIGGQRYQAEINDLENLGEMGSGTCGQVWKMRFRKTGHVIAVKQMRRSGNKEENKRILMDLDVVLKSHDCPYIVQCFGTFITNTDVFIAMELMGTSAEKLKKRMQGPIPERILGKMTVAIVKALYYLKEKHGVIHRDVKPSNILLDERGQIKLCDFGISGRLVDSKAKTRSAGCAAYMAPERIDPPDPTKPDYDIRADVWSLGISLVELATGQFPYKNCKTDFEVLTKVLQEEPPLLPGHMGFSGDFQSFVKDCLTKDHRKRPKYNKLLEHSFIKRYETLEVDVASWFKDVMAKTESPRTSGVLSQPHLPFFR
Conditions: binder

Row | Compound | ΔTm C202S
1 | Cc1cc(Nc2cc(C3CC3)[nH]n2)nc(Nc2ccc(CC#N)cc2)n1 [ASC69] | 4.9 °C
2 | O=C1Nc2ccccc2/C1=C/c1c[nH]cn1 [K00007] | 2.3 °C
3 | Brc1c(Br)c(Br)c2[nH]nnc2c1Br [K00040, TBB (218697)] | 3.3 °C
4 | O=C1NC(=O)C(=Cc2ccc3c(c2)OC(F)(F)O3)S1 [K00828, PI3Kg inhib II (528108)] | 0.6 °C
5 | CCN1CCN(Cc2ccc(NC(=O)c3ccc(C)c(C=Cc4cnc5[nH]ccc5c4OC)c3)cc2C(F)(F)F)CC1 [K03427, HG-6-64-01] | 3.5 °C

Reference: paper doi:10.1101/2020.06.11.145995v1 (biorxiv, 2020)
